From patent US8106055B2, “Substituted amide compounds” (Gruenenthal GmbH, priority 2007, dated 2012)

How the values were obtained:
human μ opiate receptor = molecular target: T1, human μ opiate receptor (Homo sapiens, UniProt P35372); test: Affinity for the human μ opiate receptor ([3H]-naloxone displacement, CHO-K1 receptor membrane preparation, SPA); format: binding; settings: test concentration of 1 μM
T1 construct: purchased PerkinElmer Life Sciences, Zaventem, Belgium RB-HOM; host or cells: CHO-K1 cells (membrane preparation)
T1 sequence (P35372 whole entry): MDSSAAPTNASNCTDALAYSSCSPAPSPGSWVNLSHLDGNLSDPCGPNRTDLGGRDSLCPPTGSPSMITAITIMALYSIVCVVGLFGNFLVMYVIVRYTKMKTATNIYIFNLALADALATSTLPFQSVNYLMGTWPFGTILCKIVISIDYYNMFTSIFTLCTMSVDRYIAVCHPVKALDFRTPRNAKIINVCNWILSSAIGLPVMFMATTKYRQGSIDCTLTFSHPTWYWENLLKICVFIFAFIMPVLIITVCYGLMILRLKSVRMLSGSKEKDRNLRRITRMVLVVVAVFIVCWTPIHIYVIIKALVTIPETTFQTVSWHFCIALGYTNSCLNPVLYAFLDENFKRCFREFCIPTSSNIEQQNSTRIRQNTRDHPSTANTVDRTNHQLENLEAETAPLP
Summary of the method: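 Displacement of 1 nmol/l [3H]-naloxone measured by SPA counting after 90 min at room temperature, using human μ receptor CHO-K1 membrane preparation in Tris-HCl buffer with 0.06% BSA. Test substances at 1 μmol/l give % inhibition; dilution series yield IC50, then Ki (Cheng-Prusoff); non-specific binding with 100 μmol/l naloxone.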

[1] = molecular target: T2, serotonin (5-HT) reuptake (Rattus norvegicus, UniProt P31652); test: Inhibition of serotonin (5HT) reuptake in synaptosomes from rat brain; format: biochemical; settings: test concentration of 10 μM
T2 construct: synaptosomes are freshly isolated from areas of the rat brain; from tissue; host or cells: rat brain synaptosomes (P2 fraction)
T2 sequence (P31652 whole entry): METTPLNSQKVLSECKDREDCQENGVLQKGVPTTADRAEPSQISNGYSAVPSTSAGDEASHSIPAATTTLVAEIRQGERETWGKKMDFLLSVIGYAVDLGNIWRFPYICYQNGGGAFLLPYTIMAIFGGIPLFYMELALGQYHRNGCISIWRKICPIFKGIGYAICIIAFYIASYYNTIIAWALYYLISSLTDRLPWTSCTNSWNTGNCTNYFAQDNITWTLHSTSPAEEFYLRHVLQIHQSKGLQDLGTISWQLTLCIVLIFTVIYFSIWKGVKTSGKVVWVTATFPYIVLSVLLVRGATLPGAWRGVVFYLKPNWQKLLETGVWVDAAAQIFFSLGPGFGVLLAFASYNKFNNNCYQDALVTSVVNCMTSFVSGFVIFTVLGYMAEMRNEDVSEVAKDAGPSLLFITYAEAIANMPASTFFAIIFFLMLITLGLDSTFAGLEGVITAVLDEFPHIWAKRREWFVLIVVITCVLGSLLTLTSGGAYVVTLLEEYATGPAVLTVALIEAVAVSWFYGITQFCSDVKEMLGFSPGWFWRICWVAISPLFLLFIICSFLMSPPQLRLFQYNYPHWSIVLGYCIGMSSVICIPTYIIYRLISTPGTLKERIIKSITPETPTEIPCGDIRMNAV
Summary of the method: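 Compounds screened at 10 μM and reported as percent inhibition of serotonin uptake. Uptake measured in a freshly prepared P2 synaptosomal fraction from rat brain.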

Row | SMILES | μ (binding on the μ opioid receptor, % inhibition) (human μ opiate receptor) [%] | 5-HT (inhibition of reuptake of serotonin, % inhibition) [1] [%]
1 | CN(C)C(c1ccc(Cl)cc1)C1CCC(CNC(=O)COCCN(Cc2ccccc2)S(=O)(=O)c2ccccc2)CC1 (stereo not drawn) [Example 343] | 62 | 94
2 | CN(C)C(c1ccc(F)cc1)C1CCC(NC(=O)COCC2CCCN2S(=O)(=O)c2ccc(Cl)c(Cl)c2)CC1 (stereo not drawn) [Example 344] | 64 | 97
3 | COc1ccc(S(=O)(=O)N2CCCCC2COCC(=O)NCC2CCC(C(c3ccc(F)cc3)N(C)C)CC2)cc1 (stereo not drawn) [Example 345] | 64 | 92
4 | COc1ccc(S(=O)(=O)N2CCCC2COCC(=O)NCCC2CCC(C(c3ccc(Cl)cc3)N(C)C)CC2)cc1 (stereo not drawn) [Example 346] | 63 | 95
5 | CN(C)C(c1ccc(Cl)cc1)C1CCC(CCNC(=O)COCCN(C)S(=O)(=O)c2ccc(Cl)cc2)CC1 (stereo not drawn) [Example 347] | 63 | 93
6 | COc1cc(C)c(S(=O)(=O)N(C)CCOCC(=O)NCC2CCC(C(c3ccc(Cl)cc3)N(C)C)CC2)c(C)c1 (stereo not drawn) [Example 348] | 61 | 83
7 | COc1ccc(S(=O)(=O)N2CCCCC2COCC(=O)NCCC2CCC(C(c3ccc(F)cc3)N(C)C)CC2)cc1 (stereo not drawn) [Example 349] | 66 | 94
8 | COc1ccc(S(=O)(=O)N2CCCCC2CCOCC(=O)NCC2CCC(C(c3ccc(F)cc3)N(C)C)CC2)cc1 (stereo not drawn) [Example 350] | 61 | 92
9 | COc1ccc(S(=O)(=O)N2CCCC2COCC(=O)NCC2CCC(C(c3ccc(Cl)cc3)N(C)C)CC2)cc1 (stereo not drawn) [Example 351] | 63 | 97
10 | COc1ccc(S(=O)(=O)N2CCCCC2COCC(=O)NC2CCC(C(c3cccc(F)c3)N(C)C)CC2)cc1OC (stereo not drawn) [Example 352] | 65 | 91
11 | COc1cc(C)c(S(=O)(=O)N(C)CCOCC(=O)NCCC2CCC(C(c3ccc(F)cc3)N(C)C)CC2)c(C)c1C (stereo not drawn) [Example 354] | 61 | 90
12 | CN(C)C(c1cccc(F)c1)C1CCC(CNC(=O)COC2CCN(S(=O)(=O)c3ccccc3)C2)CC1 (stereo not drawn) [Example 355] | 66 | 102
13 | CN(C)C(c1ccc(F)cc1)C1CCC(NC(=O)COCCN(C)S(=O)(=O)c2ccc(Cl)cc2Cl)CC1 (stereo not drawn) [Example 356] | 55 | 84
14 | CN(C)C(c1ccc(F)cc1)C1CCC(NC(=O)COCCN(C)S(=O)(=O)c2ccc(F)cc2)CC1 (stereo not drawn) [Example 357] | 57 | 86
15 | COc1cc(C)c(S(=O)(=O)N(CCOCC(=O)NCCC2CCC(C(c3cccc(F)c3)N(C)C)CC2)Cc2ccccc2)c(C)c1 (stereo not drawn) [Example 358] | 71 | 92
16 | CN(C)C(c1ccc(F)cc1)C1CCC(CNC(=O)COC2CCCCC2N(C)S(=O)(=O)c2ccc(Cl)c(Cl)c2)CC1 (stereo not drawn) [Example 359] | 60 | 90
17 | CN(C)C(c1ccc(F)cc1)C1CCC(NC(=O)COCCN(C)S(=O)(=O)c2ccc(OC(F)(F)F)cc2)CC1 (stereo not drawn) [Example 361] | 59 | 87
18 | Cc1ccc(S(=O)(=O)N(C)CCOCC(=O)NCC2CCC(C(c3ccc(F)cc3)N(C)C)CC2)cc1 (stereo not drawn) [Example 362] | 54 | 105
